# Source: ChEMBL document CHEMBL4270672, “Synthesis and Biological Evaluation of Fused Tricyclic Heterocycle Piperazine (Piperidine) Derivatives As Potential Multireceptor Atypical Antipsychotics” (J Med Chem, 2018)
# Activity calls are given as the source filed them. The calls are words filed in the database; no cut-off is given here.
# What was measured:
# Rattus norvegicus [1] = experiment: Cognitive enhancing effect in Sprague-Dawley rat assessed as effect on total exploration time for familiar objects in acquisition trial at 0.03 to 0.3 mg/kg, po administered 1 hr measured for 3 mins by novel object recognition test; assay type: functional, organism-based
# [2] = biological target: 5-hydroxytryptamine receptor 2A (Rattus norvegicus, UniProt P14842); experiment: Displacement of [3H]-ketanserine from serotonin 5-HT2A receptor in rat brain cortex homogenates incubated for 30 mins by liquid scintillation counting
# D(2) dopamine receptor [3] = biological target: T1, D(2) dopamine receptor (Homo sapiens, UniProt P14416); experiment: Agonist activity at dopamine D2 receptor long isoform (unknown origin) expressed in HEK293 cells assessed as induction of calcium flux at 10 uM after 60 min by calcium 4-dye based FLIPR assay relative to control; assay type: functional, cell-based
# [4] = biological target: T2, 5-hydroxytryptamine receptor 2A (Homo sapiens, UniProt P28223); experiment: Agonist activity at serotonin 5-HT2A receptor (unknown origin) expressed in HEK293 cells assessed as induction of calcium flux at 10 uM after 60 mins by calcium 4-dye based FLIPR assay relative to control; assay type: functional, cell-based
# [5] = biological target: T3, 5-hydroxytryptamine receptor 6 (Homo sapiens, UniProt P50406); experiment: Agonist activity at serotonin 5-HT6 receptor (unknown origin) expressed in HEK293 cells assessed as induction of calcium flux at 10 uM after 60 mins by calcium 4-dye based FLIPR assay relative to control; assay type: functional, cell-based
# [6] = biological target: T2, 5-hydroxytryptamine receptor 2A; experiment: Antagonist activity at serotonin 5-HT2A receptor (unknown origin) expressed in HEK293 cells assessed as inhibition of serotonin-induced calcium flux at 10 uM after 15 mins by calcium 4-dye based FLIPR assay relative to control; assay type: functional, cell-based
# Mus musculus [7] = experiment: Induction of catalepsy in po dosed Kunming mouse measured after 60 secs; assay type: organism-based; settings: in vivo, 1 min
# Rattus norvegicus [8] = experiment: Antipsychotic activity in po dosed Sprague-Dawley rat assessed as reduction in conditioned avoidance response measured at 90 mins post single dose; assay type: functional; settings: 1.5 h
# [9] = Therapeutic index, ratio of ED50 for catalepsy in Kunming mouse to ED50 for apomorphine-induced climbing in Kunming mouse; assay type: toxicity, organism-based; settings: in vivo, read-out: Ratio ED50
# Mus musculus [10] = experiment: Induction of serum prolactin levels in Kunming mouse at 0.6 to 5.4 mg/kg, po administered for 28 days measured at 180 mins post last dose by EIA; assay type: organism-based; settings: in vivo, 3 h
# [11] = Half life in Sprague-Dawley rat at 1 mg/kg, iv by LC-MS/MS analysis; assay type: ADME, organism-based; settings: in vivo
# [12] = Tmax in Sprague-Dawley rat at 10 mg/kg, po by LC-MS/MS analysis; assay type: ADME, organism-based; settings: in vivo
# [13] = AUC (0 to t) in Sprague-Dawley rat at 1 mg/kg, iv by LC-MS/MS analysis; assay type: ADME, organism-based; settings: in vivo
# Rattus norvegicus [14] = experiment: AUC (0 to infinity) in Sprague-Dawley rat at 1 mg/kg, iv by LC-MS/MS analysis; assay type: ADME, organism-based; design: dose 1 mg/kg, route intravenous, time infinity; settings: in vivo
# [15] = AUC (0 to infinity) in Sprague-Dawley rat at 10 mg/kg, po by LC-MS/MS analysis; assay type: ADME, organism-based; design: dose 10 mg/kg, route oral, time infinity; settings: in vivo
# [16] = Oral bioavailability in Sprague-Dawley rat at 10 mg/kg by LC-MS/MS analysis; assay type: ADME, organism-based; settings: in vivo
# Rattus norvegicus [17] = experiment: Cognitive enhancing effect in Sprague-Dawley rat assessed as increase in total exploration time for novel objects in retention trial at 0.1 to 0.3 mg/kg, po administered 1 hr prior to acquisition trial measured 24 hrs post acquisition trial for 5 mins by novel object recognition test; assay type: functional, organism-based
# Rattus norvegicus [18] = experiment: Cognitive enhancing effect in Sprague-Dawley rat assessed as increase in novelty discrimination index in retention trial at 0.3 mg/kg, po administered 1 hr prior to acquisition trial measured 24 hrs post acquisition trial for 5 mins by novel object recognition test; assay type: functional, organism-based
# D(1A) dopamine receptor [19] = biological target: T4, D(1A) dopamine receptor (Homo sapiens, UniProt P21728); experiment: Antagonist activity at human dopamine D1 receptor expressed in HEK293T cells assessed as inhibition of dopamine-induced cAMP accumulation at 10 uM preincubated for 15 mins followed by dopamine induction and measured after 30 mins by HTRF assay; assay type: functional, cell-based
# D(1A) dopamine receptor [20] = biological target: T4, D(1A) dopamine receptor; experiment: Antagonist activity at human dopamine D1 receptor expressed in HEK293T cells assessed as inhibition of dopamine-induced cAMP accumulation preincubated for 15 mins followed by dopamine induction and measured after 30 mins by HTRF assay; assay type: functional, cell-based
# Histamine H3 receptor = Histamine H3 receptor (Rattus norvegicus, UniProt Q9QYN8); experiment: Displacement of [3H] methylhistamine from histamine H3 receptor in rat cerebral cotex homogenates after 30 mins by liquid scintillation counting
# [21] = Displacement of [3H]-DTG from sigma2 receptor in guinea pig brain membranes after 120 mins by liquid scintillation counting; assay type: cell membranes, Cavia porcellus, Membrane
# [22] = biological target: T5, 5-hydroxytryptamine receptor 2C (Rattus norvegicus, UniProt P08909)
# T5 sequence (P08909 whole entry): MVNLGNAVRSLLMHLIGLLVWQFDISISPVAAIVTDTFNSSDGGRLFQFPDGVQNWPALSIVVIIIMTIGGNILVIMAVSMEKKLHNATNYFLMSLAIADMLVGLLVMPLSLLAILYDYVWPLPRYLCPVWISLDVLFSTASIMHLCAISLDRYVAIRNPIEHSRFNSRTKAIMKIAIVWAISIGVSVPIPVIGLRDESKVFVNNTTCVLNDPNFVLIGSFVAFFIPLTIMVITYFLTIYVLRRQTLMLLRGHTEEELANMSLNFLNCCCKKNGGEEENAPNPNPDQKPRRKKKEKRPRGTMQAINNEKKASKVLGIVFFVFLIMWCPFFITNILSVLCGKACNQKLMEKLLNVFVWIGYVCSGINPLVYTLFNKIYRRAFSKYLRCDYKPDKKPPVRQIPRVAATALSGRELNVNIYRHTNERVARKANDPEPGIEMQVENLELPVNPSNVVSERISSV
# D(2) dopamine receptor [23] = biological target: T1, D(2) dopamine receptor
# D(3) dopamine receptor = D(3) dopamine receptor (Homo sapiens, UniProt P35462)
# [24] = biological target: 5-hydroxytryptamine receptor 1A (Homo sapiens, UniProt P08908)
# [25] = biological target: T2, 5-hydroxytryptamine receptor 2A
# [26] = biological target: T3, 5-hydroxytryptamine receptor 6
# [27] = biological target: T3, 5-hydroxytryptamine receptor 6; experiment: biochemical
# Mus musculus [28] = organism: Mus musculus; experiment: animal or person; settings: Kunming, po
# Description: (§1) Antipsychotic activity in po dosed Kunming mouse assessed as reduction in apomorphine-induced climbing pretreated for 30 mins followed by apomorphine injection measured at 10 to 30 mins post dose
# Mus musculus [29] = settings: Kunming
# Description: Antipsychotic activity in po dosed Kunming mouse assessed as reduction in MK-801-induced hyperactivity pretreated for 60 mins followed by MK-801 challenge measured for 90 mins
# Mus musculus [30] = settings: Kunming; remark: listed apart in the source
# Description: as §1
# T3 sequence (P50406 whole entry): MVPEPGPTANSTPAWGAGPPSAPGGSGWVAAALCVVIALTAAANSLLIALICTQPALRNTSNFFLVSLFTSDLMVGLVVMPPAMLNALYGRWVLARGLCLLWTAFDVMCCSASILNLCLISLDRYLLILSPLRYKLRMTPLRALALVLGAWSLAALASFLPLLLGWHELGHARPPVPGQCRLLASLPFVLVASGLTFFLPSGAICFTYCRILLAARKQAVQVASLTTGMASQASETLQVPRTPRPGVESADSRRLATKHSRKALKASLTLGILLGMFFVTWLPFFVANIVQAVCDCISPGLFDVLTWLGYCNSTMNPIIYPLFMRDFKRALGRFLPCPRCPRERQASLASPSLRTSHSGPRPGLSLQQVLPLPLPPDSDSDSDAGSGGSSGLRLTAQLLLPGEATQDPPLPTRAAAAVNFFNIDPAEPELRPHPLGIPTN
# T2 sequence (P28223 whole entry): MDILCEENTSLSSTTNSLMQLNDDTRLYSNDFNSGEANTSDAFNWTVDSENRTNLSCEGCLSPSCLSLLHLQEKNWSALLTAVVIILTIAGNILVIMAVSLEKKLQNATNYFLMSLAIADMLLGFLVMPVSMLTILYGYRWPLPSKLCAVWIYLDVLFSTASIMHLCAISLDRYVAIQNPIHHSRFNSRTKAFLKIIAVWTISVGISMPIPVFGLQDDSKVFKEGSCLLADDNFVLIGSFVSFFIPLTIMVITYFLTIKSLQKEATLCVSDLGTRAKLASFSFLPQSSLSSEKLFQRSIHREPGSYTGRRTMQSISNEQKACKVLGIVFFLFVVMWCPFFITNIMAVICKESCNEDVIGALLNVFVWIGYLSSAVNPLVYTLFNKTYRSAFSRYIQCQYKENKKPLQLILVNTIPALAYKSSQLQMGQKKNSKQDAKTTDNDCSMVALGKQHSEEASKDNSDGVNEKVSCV
# T1 sequence (P14416 whole entry, canonical isoform): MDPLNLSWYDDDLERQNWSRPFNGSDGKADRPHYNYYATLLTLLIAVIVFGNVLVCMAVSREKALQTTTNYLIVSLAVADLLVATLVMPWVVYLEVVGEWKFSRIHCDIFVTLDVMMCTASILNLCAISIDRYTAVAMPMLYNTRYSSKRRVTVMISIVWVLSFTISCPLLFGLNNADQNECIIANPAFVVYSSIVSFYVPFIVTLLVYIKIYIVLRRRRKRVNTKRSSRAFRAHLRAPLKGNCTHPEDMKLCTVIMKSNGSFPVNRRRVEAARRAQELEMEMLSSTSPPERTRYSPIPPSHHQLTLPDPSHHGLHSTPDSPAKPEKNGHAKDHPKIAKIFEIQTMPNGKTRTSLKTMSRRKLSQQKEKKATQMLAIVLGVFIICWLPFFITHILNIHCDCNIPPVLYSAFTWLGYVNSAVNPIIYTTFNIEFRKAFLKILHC
# T4 sequence (P21728 whole entry): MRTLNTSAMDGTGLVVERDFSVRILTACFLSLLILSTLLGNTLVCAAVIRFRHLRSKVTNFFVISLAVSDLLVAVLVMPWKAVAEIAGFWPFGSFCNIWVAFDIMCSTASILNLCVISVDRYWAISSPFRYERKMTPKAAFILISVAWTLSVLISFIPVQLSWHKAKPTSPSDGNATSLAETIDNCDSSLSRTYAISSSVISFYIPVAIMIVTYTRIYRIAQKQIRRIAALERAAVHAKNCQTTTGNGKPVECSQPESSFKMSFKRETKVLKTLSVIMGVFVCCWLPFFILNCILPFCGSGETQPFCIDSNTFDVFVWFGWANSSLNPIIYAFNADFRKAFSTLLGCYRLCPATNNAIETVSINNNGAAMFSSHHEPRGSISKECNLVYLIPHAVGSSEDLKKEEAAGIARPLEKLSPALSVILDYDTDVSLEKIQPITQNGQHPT
# Sequence of D(3) dopamine receptor (P35462 whole entry): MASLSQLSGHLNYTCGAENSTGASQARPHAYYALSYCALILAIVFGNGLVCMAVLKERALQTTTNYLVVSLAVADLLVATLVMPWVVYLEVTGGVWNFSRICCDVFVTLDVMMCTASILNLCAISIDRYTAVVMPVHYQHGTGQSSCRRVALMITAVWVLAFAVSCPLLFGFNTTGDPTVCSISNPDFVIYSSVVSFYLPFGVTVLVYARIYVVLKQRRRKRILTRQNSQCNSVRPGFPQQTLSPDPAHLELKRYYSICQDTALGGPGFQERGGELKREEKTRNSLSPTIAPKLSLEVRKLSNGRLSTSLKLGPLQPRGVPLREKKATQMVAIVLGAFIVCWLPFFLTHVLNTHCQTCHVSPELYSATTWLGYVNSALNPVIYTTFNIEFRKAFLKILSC
# Sequence of 5-hydroxytryptamine receptor 2A (Rattus norvegicus, UniProt P14842) (P14842 whole entry, canonical isoform): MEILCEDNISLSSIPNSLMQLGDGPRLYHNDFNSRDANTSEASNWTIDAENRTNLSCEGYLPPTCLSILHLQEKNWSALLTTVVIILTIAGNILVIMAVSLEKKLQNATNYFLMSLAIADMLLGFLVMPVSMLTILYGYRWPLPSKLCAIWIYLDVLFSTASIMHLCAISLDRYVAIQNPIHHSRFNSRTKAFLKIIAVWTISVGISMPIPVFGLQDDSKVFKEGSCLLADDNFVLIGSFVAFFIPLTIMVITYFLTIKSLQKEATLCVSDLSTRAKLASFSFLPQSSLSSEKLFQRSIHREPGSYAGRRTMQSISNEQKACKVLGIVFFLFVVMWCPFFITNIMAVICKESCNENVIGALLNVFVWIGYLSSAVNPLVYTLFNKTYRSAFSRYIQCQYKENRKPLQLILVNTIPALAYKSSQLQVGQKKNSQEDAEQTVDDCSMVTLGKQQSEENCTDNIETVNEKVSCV
# Sequence of Histamine H3 receptor (Q9QYN8 whole entry): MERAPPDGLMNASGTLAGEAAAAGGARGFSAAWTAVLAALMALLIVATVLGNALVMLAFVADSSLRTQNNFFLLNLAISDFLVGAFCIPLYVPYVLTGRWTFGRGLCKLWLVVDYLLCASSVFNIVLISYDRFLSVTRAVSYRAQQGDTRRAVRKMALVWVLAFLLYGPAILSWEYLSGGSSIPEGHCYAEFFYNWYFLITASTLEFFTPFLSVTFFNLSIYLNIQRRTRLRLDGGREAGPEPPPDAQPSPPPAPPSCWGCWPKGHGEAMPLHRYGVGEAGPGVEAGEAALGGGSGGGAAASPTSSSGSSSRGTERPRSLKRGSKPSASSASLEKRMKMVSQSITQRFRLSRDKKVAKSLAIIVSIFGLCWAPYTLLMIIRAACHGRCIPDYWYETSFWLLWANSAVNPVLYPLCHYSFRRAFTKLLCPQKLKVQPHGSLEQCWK
# Sequence of 5-hydroxytryptamine receptor 1A (P08908 whole entry): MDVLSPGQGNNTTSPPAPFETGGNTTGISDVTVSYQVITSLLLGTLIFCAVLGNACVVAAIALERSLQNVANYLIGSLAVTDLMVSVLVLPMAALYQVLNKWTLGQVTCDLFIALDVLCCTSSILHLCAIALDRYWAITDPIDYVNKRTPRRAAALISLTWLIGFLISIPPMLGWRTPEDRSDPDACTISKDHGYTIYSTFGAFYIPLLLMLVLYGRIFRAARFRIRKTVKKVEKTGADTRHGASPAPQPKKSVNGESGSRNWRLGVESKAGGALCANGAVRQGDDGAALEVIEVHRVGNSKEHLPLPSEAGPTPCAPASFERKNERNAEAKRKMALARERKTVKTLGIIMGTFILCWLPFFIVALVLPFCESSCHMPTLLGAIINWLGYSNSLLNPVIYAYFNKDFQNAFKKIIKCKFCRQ
compound,measurement,setting,value
O=C(CCCCN1CCC(c2noc3cc(F)ccc23)CC1)c1cc2c3c(c1)CCN3C(=O)CC2,Activity,Rattus norvegicus [1],inactive
same,Ki,[2],0.72 nM
same,Activity,D(2) dopamine receptor [3],9.8%
same,Activity,[4],0.6%
same,Activity,[5],6%
same,inhibition,[6],100%
same,ED50,Mus musculus [7],78.62 mg/kg
same,ED50,Rattus norvegicus [8],1.46 mg/kg
same,selectivity ratio,[9],129
same,Activity,Mus musculus [10],Non-Toxic
same,half-life,[11],2.15 h
same,Tmax,[12],1 h
same,AUC(0-t),[13],3140 ng·h/mL
same,AUC,Rattus norvegicus [14],3151.2 ng·h/mL
same,AUC(0-inf),[15],18500 ng·h/mL
same,bioavailability,[16],58.8%
same,Activity,Rattus norvegicus [17],Active
same,Activity,Rattus norvegicus [18],Active
same,inhibition,D(1A) dopamine receptor [19],> 90%
same,IC50,D(1A) dopamine receptor [20],366 nM
same,Ki,Histamine H3 receptor,> 1000 nM
same,Ki,[21],> 1000 nM
same,Ki,[22],616 nM
same,IC50,D(2) dopamine receptor [23],9.02 nM
same,IC50,D(3) dopamine receptor,25.6 nM
same,IC50,[24],588 nM
same,IC50,[25],257 nM
same,IC50,[26],178 nM
same,Ki,[27],5.55 nM
same,ED50,Mus musculus [28],0.61 mg/kg
same,Activity,Mus musculus [29],Dose-dependent effect
same,Activity,Mus musculus [30],Dose-dependent effect
